In patent publication US12435087B2, “Modulators of DCN-1 and methods of use thereof” (Cellarity, Inc., priority 2023, dated 2025) one finds IC50 data, which are given here for 30 compounds.

Each structure is given as a SMILES string. Like-named read-outs stand apart in the source and are kept apart here. Bounds are passed on as bounds.

One may read the IC50 as the concentration needed to halve the response being measured.

In the assay the target is DCN1 (DCUND1) protein PONY domain (Homo sapiens (Human), UniProt Q96GG9). Kind of assay: TR-FRET assay (binding to DCN-1, displacement of FAM-labeled probe).
Excerpt: (§1) The TR-FRET assay was designed following the Scott et al. protocol (Scott et al., Nat Chem Biol. 2017 August; 13(8): 850-857. doi:10.1038/nchembio.2386). The recombinant form of the DCN1 (DCUND1) protein PONY domain was produced using an E. coli expression system at Viva Biotech (China). The DCN1 protein was biotinylated (EZ sulfo-NHS-LC-biotin; Thermofisher) for labeling with streptavidin terbium (Tb) cryptate in the reaction. The probe was changed to a non-covalent DCN1 inhibitor labeled with carboxyfluorescein (FAM; Zhou et al., Nat Commun. 2017; 8: 1150. doi: 10.1038/s41467-017-01243-7). Buffer conditions were modified to enhance protein stability by exchanging Tween20 for TritonX and increasing NaCl to 200 mM. The compounds were screened against 5 nM DCN1 and 20 nM FAM-probe or 0.31 nM DCN1 and 900 nM total probe (100 nM FAM-labeled plus 800 nM unlabeled). The TR-FRET ratio between Tb-DCN1 and the FAM-labeled probe was measured in a 384-well opti-plate (Perkin Elmer) using a plate reader (BMG) at 1, 5, and 24 hrs after treatment with compound (final DMSO concentration of 0.1%). The ratio was normalized to the high (DCN1 and FAM-probe) and low (DCN1 and no probe) controls for a readout of % activity (=100*(x−low)/(high−low).
A TR-FRET assay was performed to evaluate the ability of the compounds to bind the DCN-1 protein.
as §1, with “850-857. Doi: 10.1038/nchembio.2386).” for “850-857. doi:10.1038/nchembio.2386).”, “the DCNI” for “the DCN1”, “1150. Doi:” for “1150. doi:”, “0.1%).” for “0.1%). The ratio was normalized to the high (DCN1 and FAM-probe) and low (DCN1 and no probe) controls for a readout of % activity (=100*(x−low)/(high−low).”
In general terms: TR-FRET usually uses a lanthanide donor and a delayed reading to cut background.

[1] abbreviates: 24 hr after treatment with compound, read-out: TR FRET IC50 24 hr.
The mark [2] stands for this setting: TR FRET IC50 1 hr (nM), 1 hr after treatment with compound.
[3] abbreviates: read-out: TR FRET IC50 1 hr, 1 hr after treatment with compound.

Chain of DCN1 (DCUND1) protein PONY domain (Q96GG9 60-248): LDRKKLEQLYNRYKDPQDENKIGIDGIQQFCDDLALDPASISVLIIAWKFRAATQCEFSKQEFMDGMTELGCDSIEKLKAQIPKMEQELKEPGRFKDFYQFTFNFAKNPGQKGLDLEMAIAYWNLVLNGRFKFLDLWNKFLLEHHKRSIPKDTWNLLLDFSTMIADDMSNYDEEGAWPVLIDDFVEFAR

Turning to `CCN1C(=O)[C@@H](NC(=O)c2cccc(C(F)(F)F)c2)[C@H](c2ccccc2CNC(=O)/C=C/CN(C)C)c2cnn(-c3ccccc3)c21` (racemic) [Compound I-120], the concentration for half-maximal inhibition (IC50) lay within 1000 to 3000 nM under setting [1] and 1000 to 3000 nM under setting [2]. For the compound `C=C(CN1CC2(COC2)C1)C(=O)NCc1cccc([C@H]2c3cnn(-c4ccccc4)c3N(CC)C(=O)[C@H]2NC(=O)c2cccc(C(F)(F)F)c2)c1` [Compound I-156], the half-inhibitory concentration (IC50) is, setting by setting: under setting [1], 200 to 1000 nM; under setting [2], 1000 to 3000 nM. On to `C=C(CO)C(=O)Nc1cccc([C@@H]2c3c(C)nn(-c4ccccc4)c3N(CC)C(=O)[C@H]2NC(=O)c2cccc(C(F)(F)F)c2)c1` (racemic) [Compound I-71], for which the IC50 under setting [1] was in the range of 200 to 1000 nM and the half-maximal inhibitory concentration (IC50) under setting [2] lay within 1000 to 3000 nM. As to `C=C(CN1C2COCC1C2)C(=O)NCc1cccc([C@@H]2c3cnn(-c4ccccc4)c3N(CC)C(=O)[C@H]2NC(=O)c2cccc(C(F)(F)F)c2)c1` [Compound I-8], the IC50 by setting is: under setting [1], at most 200 nM; under setting [3], at most 200 nM.

With `C=C(CN1CC2CCC(C1)O2)C(=O)NCc1cccc([C@@H]2c3cnn(-c4ccccc4)c3N(CC)C(=O)[C@H]2NC(=O)c2nccc(C(F)(F)F)n2)c1` [Compound I-292], the IC50 is at most 200 nM under setting [1] and at most 200 nM under setting [3]. For `C/C=C(\CN1CC2(COC2)C1)C(=O)NCc1cccc([C@@H]2c3cnn(-c4ccccc4)c3N(CC)C(=O)[C@H]2NC(=O)c2ccn(C(F)(F)F)n2)c1` [Compound I-302], the IC50 under setting [1] is at most 200 nM and the half-maximal inhibitory concentration (IC50) under setting [2] is 200 to 1000 nM. As for `C=C(CN1CCN(C2COC2)CC1)C(=O)N[C@@H](C)c1cccc([C@@H]2c3cnn(-c4ccccc4)c3N(CC)C(=O)[C@H]2NC(=O)c2nccc(C(F)(F)F)n2)c1` (mixture of isomers) [Compound I-380], the 50% inhibitory concentration (IC50) runs as follows: under setting [1], 1000 to 3000 nM; under setting [2], 1000 to 3000 nM. As for `C/C=C(\CN1CCOCC1)C(=O)NCc1cccc([C@@H]2c3cnn(-c4ccccc4)c3N(CC)C(=O)[C@H]2NC(=O)c2cccc(C(F)(F)F)c2)c1` [Compound I-152], the IC50 reads like this: under setting [1], at most 200 nM; under setting [2], 1000 to 3000 nM.

Turning to `C/C=C(\CN1CCOCC1)C(=O)NCc1cccc([C@@H]2c3cnn(-c4ccccc4)c3N(CC)C(=O)[C@H]2NC(=O)c2ccn(C3CC3)n2)c1` [Compound I-241], the IC50 was at most 200 nM under setting [1] and 1000 to 3000 nM under setting [2]. As to `C/C=C(\CN1CC2(COC2)C1)C(=O)N(C)Cc1cccc([C@@H]2c3cnn(-c4ccccc4)c3N(CC)C(=O)[C@H]2NC(=O)c2nccc(C(F)(F)F)n2)c1` [Compound I-235], the 50% inhibitory concentration (IC50) runs as follows: under setting [1], 1000 to 3000 nM; under setting [2], 1000 to 3000 nM. On to `CCN1C(=O)[C@@H](NC(=O)c2cccc(C(F)(F)F)c2)[C@H](c2cccc(CNC#N)c2)c2c(C)nn(-c3ccccc3)c21` (racemic) [Compound I-138], for which the half-maximal inhibitory concentration (IC50) fell in the range of 200 to 1000 nM under setting [1] and 200 to 1000 nM under setting [2].

As to `C=C(CN1CCOCC1)C(=O)NCc1cccc([C@@H]2c3cnn(-c4ccccc4)c3N(CC)C(=O)[C@H]2NC(=O)c2ccn(C)n2)c1` (single isomer, unassigned) [Compound I-51], the IC50 under setting [3] lay in the range of 1000 to 3000 nM. For `C=C(CN1CCOCC1)C(=O)N(C)Cc1cccc([C@@H]2c3cnn(-c4ccccc4)c3N(CC)C(=O)[C@H]2NC(=O)c2ccn(C(F)(F)F)n2)c1` [Compound I-295], the IC50 is at most 200 nM under setting [1] and 1000 to 3000 nM under setting [2]. Consider `C=C(CN1CCOCC1)C(=O)NCc1cccc([C@@H]2c3cnn(-c4ccccc4)c3N(CC)C(=O)[C@H]2NC(=O)c2ccn(CC(F)F)n2)c1` [Compound I-364], for which the IC50 runs as follows: under setting [1], at most 200 nM; under setting [2], 200 to 1000 nM.

For the compound `CCN1C(=O)[C@@H](NC(=O)c2cccc(C(F)(F)F)c2)[C@H](c2cccc(CNC(=O)/C=C(\C)C(=O)OC)c2)c2cnn(-c3ccccc3)c21` [Compound I-73], the IC50 under setting [1] lay in the range of 1000 to 3000 nM and the concentration for half-maximal inhibition (IC50) under setting [2] is 1000 to 3000 nM. As to `CCN1C(=O)[C@@H](NC(=O)c2cccc(C(F)(F)F)c2)[C@H](c2ccccc2CN(C)C#N)c2c(C)nn(-c3ccccc3)c21` (racemic) [Compound I-30], the concentration for half-maximal inhibition (IC50) runs as follows: under setting [1], 1000 to 3000 nM; under setting [2], 1000 to 3000 nM. Consider `CCN1C(=O)[C@@H](NC(=O)c2cccc(C(F)(F)F)c2)[C@H](c2cccc(CNC(=O)C3=CCN(C)C3)c2)c2c(C)nn(-c3ccccc3)c21` [Compound I-244], for which the IC50 by setting is: under setting [1], at most 200 nM; under setting [2], 1000 to 3000 nM. Turning to `C=CC(=O)N(C)c1ccccc1[C@H]1c2cnn(-c3ccccc3)c2N(CC)C(=O)[C@@H]1NC(=O)c1cccc(C(F)(F)F)c1` (racemic) [Compound I-97, ˜{N}—[˜{rac}-(4˜{S},5˜{R})-7-ethyl-4-[2-[methyl(prop-2-enoyl)amino]phenyl]-6-oxo-1-phenyl-4,5-dihydropyrazolo[3,4-b]pyridin-5-yl]-3-(trifluoromethyl)benzamide], the IC50 by setting is: under setting [1], 1000 to 3000 nM; under setting [2], 1000 to 3000 nM. `C/C=C(/C(=O)Nc1cccc([C@@H]2c3cnn(-c4ccccc4)c3N(CC)C(=O)[C@H]2NC(=O)c2nccc(C(F)(F)F)n2)c1)C(C)N1CCC1` (stereo partly shown) [Compound I-385]: the half-maximal inhibitory concentration (IC50) under setting [1] fell in the range of 1000 to 3000 nM and the half-inhibitory concentration (IC50) under setting [2] lay in the range of 1000 to 3000 nM.

With `C/C=C(\CN1CCC(F)(F)C1)C(=O)Nc1cccc([C@@H]2c3cnn(-c4ccccc4)c3N(CC)C(=O)[C@H]2NC(=O)c2nccc(C(F)(F)F)n2)c1` [Compound I-368], the IC50 runs as follows: under setting [1], at most 200 nM; under setting [2], 1000 to 3000 nM. As for `CCN1C(=O)[C@@H](NC(=O)c2nccc(C(F)(F)F)n2)[C@H](c2cccc(CN3CC=CS3(=O)=O)c2)c2cnn(-c3ccccc3)c21` [Compound I-263, N-((4R,5S)-4-(3-((1,1-dioxidoisothiazol-2 (3H)-yl)methyl)phenyl)-7-ethyl-6-oxo-1-phenyl-4,5,6,7-tetrahydro-1H-pyrazolo[3,4-b]pyridin-5-yl)-4-(trifluoromethyl)pyrimidine-2-carboxamide], the IC50 by setting is: under setting [1], 1000 to 3000 nM; under setting [2], 1000 to 3000 nM. For the compound `CCN1C(=O)[C@H](NC(=O)c2cccc(C(F)(F)F)c2)[C@@H](c2ccccc2N2CC=CC2=O)c2cnn(-c3ccccc3)c21` (racemic) [Compound I-21], the IC50 runs as follows: under setting [1], over 3000 nM; under setting [2], over 3000 nM. Regarding `CCN1C(=O)[C@H](NC(=O)c2cccc(C(F)(F)F)c2)[C@@H](c2cccc(CNC(=O)C3=CCCN(C)C3)c2)c2cnn(-c3ccccc3)c21` [Compound I-106], the concentration for half-maximal inhibition (IC50) by setting is: under setting [1], 1000 to 3000 nM; under setting [2], 1000 to 3000 nM. Consider `C=C(C(=O)NCc1cccc([C@@H]2c3cnn(-c4ccccc4)c3N(CC)C(=O)[C@H]2NC(=O)c2nccc(C(F)(F)F)n2)c1)[C@H](C)N(C)C1COC1` (single isomer, unassigned) [Compound I-382], for which the IC50 under setting [2] lay in the range of 200 to 1000 nM. Take `CCN1C(=O)[C@@H](NC(=O)c2cccc(C(F)(F)F)c2)[C@H](c2cccc(CN(C)C/C=C/C(=O)N3CCCC3)c2)c2cnn(-c3ccccc3)c21` [Compound I-255]: the half-inhibitory concentration (IC50) fell in the range of 1000 to 3000 nM under setting [1] and 1000 to 3000 nM under setting [2]. In the case of `CCN1C(=O)[C@@H](NC(=O)c2cccc(C(F)(F)F)c2)[C@H](c2cc(NC(=O)/C=C/CN(C)C)ccc2F)c2cnn(-c3ccccc3)c21` (racemic) [Compound I-79], the 50% inhibitory concentration (IC50) is, setting by setting: under setting [1], 200 to 1000 nM; under setting [2], 1000 to 3000 nM. With `C=C(CN1CCC1)C(=O)NCc1cccc([C@@H]2c3cnn(-c4ccccc4)c3N(CC)C(=O)[C@H]2NC(=O)c2nccc(C(F)(F)F)n2)c1` [Compound I-162], the IC50 is, setting by setting: under setting [1], at most 200 nM; under setting [3], at most 200 nM. As for `C=C(CN1CC(F)(F)C1)C(=O)NCc1cccc([C@H]2c3cnn(-c4ccccc4)c3N(CC)C(=O)[C@@H]2NC(=O)c2cccc(C(F)(F)F)c2)c1` [Compound I-96], the IC50 lay within 1000 to 3000 nM under setting [1] and 1000 to 3000 nM under setting [2].

As to `C/C=C(/CN1CCN(C2COC2)CC1)C(=O)NCc1cccc([C@@H]2c3cnn(-c4ccccc4)c3N(CC)C(=O)[C@H]2NC(=O)c2nccc(C(F)(F)F)n2)c1` (racemic) [Compound I-257], the 50% inhibitory concentration (IC50) was 1000 to 3000 nM under setting [1] and 1000 to 3000 nM under setting [2]. For `CCN1C(=O)[C@@H](NC(=O)c2cccc(C(F)(F)F)c2)[C@H](c2cccc(CNC(=O)C(F)Cl)c2)c2cnn(-c3ccccc3)c21` (mixture of isomers) [Compound I-100], the concentration for half-maximal inhibition (IC50) under setting [1] is 1000 to 3000 nM and the IC50 under setting [2] lay within 1000 to 3000 nM.
